The values that follow come from PubChem BioAssay (NCI).

What all share (assay): growth of human tumour cells (NCI), 48 h
Assay [1] concerns SK-OV-3 ovarian.
Assay [2] has as its system IGROV1 ovarian.
Assay [3] has as its system SF-539 CNS.
In assay [4] the test system is MDA-MB-231 breast.
Assay [5] deals with HS 578T breast.
For assay [6], the system named is HCC-2998 colon.
Assay [7] relates to UO-31 renal.
The subject of assay [8] is OVCAR-8 ovarian.
The test system of assay [9] is T-47D breast.
For assay [10], the system named is CAKI-1 renal.

Where “and” joins values, the source holds several entries; their conditions need not be identical. Identical values can stand only once.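 Five compound concentrations were applied to cells in 96-well plates for 48 hours; endpoints were derived by simple linear interpolation of the resulting dose-response curve. At the GI50, growth is halved. TGI: concentration producing complete growth inhibition.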

In the case of `COc1ccc(-c2nc(-c3nc4ccc(OC)cc4[nH]3)c3ccccn23)cc1`, the GI50 is 36.1 µM in assay [1]; 2.7 µM in assay [2]; 9.71 µM in [3]; 5.65 µM in [4]; 2.57 µM in [5]; 3.96 µM in assay [6]. The GI50 in [7] is 2.47 µM; in [8], 2.35 µM; in assay [9], 2.7 µM; in assay [10] it was 3.81 µM. The TGI in assay [1] was over 100 µM; in assay [2] it was 6.98 µM; in assay [3], over 100 µM; in assay [4], over 100 µM; in assay [5], 7.15 µM; in assay [6] it was 46.4 µM. In addition, the TGI in assay [7] was 7.93 µM; in [8] it was 7.6 µM; in assay [9], 9.75 µM; in assay [10], 49.4 µM.
On to `COc1cc(C[C@H]2c3cc(OC)c(OC)cc3CCN2C)c(Oc2cc3c(cc2OC)-c2c(OC)c(OC)cc4c2[C@H](C3)N(C)CC4)cc1OC`, for which the GI50 in [1] is 15.1 µM and 21.1 µM; in [2], 14.2 µM; in assay [3], 3.97 µM; in assay [6], 4.9 µM; in [7], 9.73 µM; in assay [8] it was 17 µM. In addition, the GI50 in assay [10] was 16.1 µM. For the same compound, the TGI is 40 µM and 36.2 µM in assay [1]; 32.6 µM and 28.3 µM in [2]; 16.2 µM and 9.41 µM in assay [3]; 14.9 µM in [4]; 13.1 µM in assay [5]; 15.1 µM and 14.4 µM in [6]. Further, the TGI was 16.8 µM and 22.6 µM in assay [7]; 18.5 µM and 35 µM in assay [8]; 23.4 µM in assay [9]; 23.9 µM and 42.6 µM in assay [10].
With `Cc1ccc(S(=O)(=O)N/N=C/c2c(O)ccc3ccccc23)cc1`, the TGI in [1] was determined as 84.6 µM; in [2], 84.5 µM; in assay [3] it was 41.8 µM; in [4], 70.7 µM; in [5], 46.8 µM; in assay [6] it was 46.1 µM. For the same compound, the TGI was over 100 µM in assay [7], over 100 µM in [8], over 100 µM in assay [9] and 35.3 µM in assay [10].
For `COc1cc2ccc(/C=C\[N+](=O)[O-])cc2cc1OC`, the TGI in [1] was 28.4 µM; in assay [2] it was 3.92 µM; in assay [3] it was 4.91 µM; in [4], 9.02 µM; in assay [5], 37.8 µM; in assay [6], 13.6 µM. Moreover, the TGI in assay [7] was 3.36 µM; in assay [8], 9.72 µM; in assay [9], 12.5 µM; in assay [10], 20 µM.
Take `CCN(CC)CCCC(C)Nc1ccnc2cc(Oc3ccccc3)ccc12` (stereo not given): the GI50 in assay [1] was 15.7 µM and 22.9 µM; in assay [2], 3.55 µM and 14.1 µM; in [3] it was 2.15 µM and 2 µM; in assay [4], 2.05 µM and 3.47 µM; in assay [5], 5.5 µM and 16.7 µM; in [6], 2.34 µM and 6.92 µM. The GI50 in assay [7] is 1.3 µM and 11.3 µM; in assay [8], 3.62 µM and 9.15 µM; in assay [9], 1.68 µM and 2.39 µM; in [10], 13.1 µM and 5.96 µM. Further, the TGI in assay [1] is 32.2 µM and 78.9 µM; in assay [2] it was 16.9 µM and > 100 µM; in assay [3], 4.35 µM and 4.28 µM; in assay [4] it was 8.41 µM and 21.9 µM; in assay [5] it was 24.3 µM and 56.5 µM; in [6], 7.94 µM and 36.9 µM. Also, the TGI was 3.09 µM and 27.7 µM in [7]; 14.6 µM and 38.5 µM in [8]; 3.32 µM and 6.19 µM in assay [9]; 37.9 µM and 36.2 µM in [10].
As for `COc1cc([C@@H]2OC[C@@H]3C(c4cc(OC)c5c(c4)OCO5)OC[C@@H]32)cc(OC)c1OC` (stereo not given in full), the TGI in [1], in [2], in assay [3], in assay [4], in assay [5] and in assay [6] was over 100 µM throughout. Moreover, the TGI in [7], in assay [8], in assay [9] and in [10] was over 100 µM in each case.
Regarding `C=C1CCC2C3(C)COC(c4ccc(N(C)C)cc4)OC3CCC2(C)C1C/C=C1/C(=O)OCC1O` (stereo not given), the GI50 in assay [1] was 17 µM; in [2] it was 2.44 µM; in assay [3] it was 8.07 µM; in [4], 7.19 µM; in assay [5], 2.13 µM; in [6] it was 7.69 µM. The GI50 in [7] is 5.63 µM; in assay [8] it was 3.78 µM; in assay [9], 6.91 µM; in [10], 2.12 µM. Besides, the TGI in assay [1] was found to be 50.4 µM; in assay [2] it was 6.02 µM; in [3], 20.5 µM; in assay [4], 20.8 µM; in assay [5], 6.69 µM; in assay [6] it was 19.8 µM. The TGI in [7] came out at 18.9 µM; in assay [8], 18.9 µM; in assay [9], 26.3 µM; in assay [10], 5.66 µM.
In the case of `CCN(CC)CCCCNc1c2ccccc2[n+](C)c2c1[nH]c1ccccc12`, the GI50 is 0.366 µM in assay [1]; 0.473 µM in [2]; 0.473 µM in assay [3]; 0.238 µM in assay [5]; 0.27 µM in [6]; 3.13 µM in [7]. Also, the GI50 in assay [8] is 0.786 µM; in assay [9] it was 0.178 µM; in assay [10], 2.05 µM. Moreover, the TGI in assay [1] is 3.72 µM; in [2] it was 7.4 µM; in assay [3], 1.74 µM; in [4], over 20.3 µM; in assay [5], 0.865 µM; in [6], 0.763 µM. The TGI is over 50.6 µM in [7], 19.8 µM in [8], 1.1 µM in [9] and 14.4 µM in assay [10].
Take `CCC(C)(CC(C)(C)C(=O)NCC(=O)NC(Cc1ccccc1)C(=O)NC(Cc1ccccc1)C(=O)NCC(=O)NC1CC(OC2CC(O)(C(=O)CO)Cc3c(O)c4c(c(O)c32)C(=O)c2c(OC)cccc2C4=O)OC(C)C1O)C(=O)NCC(C)O` (stereo not given): the GI50 in assay [1] is over 150 µg/mL; in assay [2] it was 41.7 µg/mL; in assay [3] it was 53 µg/mL; in assay [4], 119 µg/mL; in assay [5], over 150 µg/mL; in [6] it was 116 µg/mL. Moreover, the GI50 in assay [7] is over 150 µg/mL; in assay [8] it was 138 µg/mL; in assay [9], 70.3 µg/mL; in assay [10], 90.9 µg/mL. The TGI in assay [1], in [2], in assay [3], in assay [4], in assay [5] and in assay [6] was over 150 µg/mL in each case. The TGI in [7], in assay [8], in assay [9] and in assay [10] was over 150 µg/mL each time.
For `COc1cc(NC(C)CCCNC2CN3CCC2CC3)c2ncccc2c1` (stereo not given), the GI50 in assay [1] is 15.2 µM; in assay [2], 11.5 µM; in assay [3], 15.2 µM; in assay [4] it was 3.58 µM; in assay [5] it was 14.8 µM; in [6], 11.1 µM. Besides, the GI50 was 13.7 µM in [7], 13.7 µM in assay [8], 4.54 µM in [9] and 13.4 µM in assay [10]. The TGI in assay [1] was 28.5 µM; in [2] it was 31.2 µM; in assay [3], 30.5 µM; in assay [4] it was 15.7 µM; in assay [5] it was 39.6 µM; in assay [6], 24.8 µM. Moreover, the TGI in assay [7] was 32.6 µM; in [8], 30.1 µM; in assay [9] it was 20.5 µM; in [10], 38.9 µM.
Regarding `COc1ccc(C(=O)c2cc(OC)c(OC)c(OC)c2)cc1OC(=O)CCl`, the GI50 was 0.163 µM in assay [1]; 0.359 µM in assay [2]; under 0.01 µM in assay [3]; 0.0362 µM in assay [4]; 0.0281 µM in [5]; 0.0393 µM in [6]. Further, the GI50 in assay [7] was 0.373 µM; in assay [8] it was 0.052 µM; in assay [9], 3.03 µM; in assay [10], 0.151 µM. Also, the TGI was over 100 µM in assay [1]; over 100 µM in [2]; 0.0541 µM in assay [3]; over 100 µM in assay [5]; over 100 µM in [6]; over 100 µM in assay [7]. Besides, the TGI was over 100 µM in assay [8], 97.3 µM in [9] and over 100 µM in assay [10].
With `CN[C@@H](C)C(=O)N[C@H](C(=O)N1CCC[C@H]1C(=O)Nc1snnc1-c1ccccc1)C1CCCCC1`, the GI50 in assay [1] was 0.0244 µM; in assay [2], 76.9 µM; in assay [3] it was 1.08 µM; in assay [4] it was 0.778 µM; in [5], 72.8 µM; in assay [6] it was 25.6 µM. The GI50 in [7] is 97.4 µM; in assay [8] it was 13.8 µM; in assay [9] it was 57.5 µM; in assay [10], 68 µM. Also, the TGI in [1] was 0.723 µM; in assay [2], over 100 µM; in [3], over 38.6 µM; in assay [4] it was 21.4 µM; in assay [5], over 100 µM; in assay [6], 60.8 µM. Also, the TGI in assay [7] is over 100 µM; in [8] it was 21.3 µM; in [9], over 100 µM; in [10] it was over 100 µM.
As to `FC(F)(F)c1ccc(Nc2nc(-c3c(C(F)(F)F)nc4ccccn34)cs2)cc1`, the GI50 in assay [1] is 0.0491 µM; in assay [2], 0.422 µM; in assay [3], 0.0383 µM; in assay [4], 0.81 µM; in assay [5] it was 0.0356 µM; in assay [6], 0.18 µM. The GI50 in [7] is 0.289 µM; in assay [8], 0.18 µM; in [9] it was 0.0453 µM; in [10], 0.0419 µM. Also, the TGI in assay [1] was determined as 5.03 µM; in [2], 12.1 µM; in assay [3] it was 0.276 µM; in assay [4], 6.93 µM; in assay [5], 2.12 µM; in assay [6], 9.74 µM. Moreover, the TGI in assay [7] was determined as 6.89 µM; in [8], 7.74 µM; in assay [9] it was 9.07 µM; in assay [10], 8.2 µM.
Consider `Cc1ccc(Nc2n[nH]c(=S)s2)cc1C`, for which the TGI in [1], in assay [2], in [3], in assay [4], in assay [5] and in [6] was over 100 µM each time. The TGI in [7], in [8], in assay [9] and in [10] was over 100 µM throughout.
Take `CN(C)CCN1C(=O)c2ccccc2N(C)c2ccccc21`: the GI50 in assay [1], in assay [2], in [3], in assay [4], in assay [5] and in assay [6] was over 100 µM in each case. Further, the GI50 in [7], in assay [8], in assay [9] and in assay [10] was over 100 µM in each case. Also, the TGI in assay [1], in assay [2], in assay [3], in assay [4], in [5] and in [6] was over 100 µM each time. The TGI in [7], in assay [8], in assay [9] and in assay [10] was over 100 µM in each case.
In the case of `O=[N+]([O-])O.[Cu+2].[NH-]CC[NH-].[NH-]CC[NH-]`, the GI50 in assay [1], in assay [2], in assay [3], in assay [4], in assay [5] and in assay [6] was over 10 µM in each case. The GI50 in [7], in [8], in [9] and in assay [10] was over 10 µM throughout. For the same compound, the TGI in assay [1], in assay [2], in assay [3], in assay [4], in assay [5] and in assay [6] was over 10 µM throughout. Also, the TGI in assay [7], in assay [8], in assay [9] and in [10] was over 10 µM throughout.
